Laboratory results as given in patent US4777167A, “Pharmaceutically useful substituted thiacycloalkeno [3,2-b]pyridines, compositions and method of use” (Ortho Pharmaceutical Corporation, priority 1987, dated 1988).
Several values for one entry are separate records, joined by “and”; a condition that tells them apart may be missing. Identical values can stand only once. Like-named read-outs stand apart in the source and are kept apart here.

Legend:
trachealis muscle = test: Inhibition of calcium dependent smooth muscle contraction (KCl-challenged trachea); format: cell-based, dog; details: Canis lupus familiaris; for inhibition at 0.2 µM: concentration 0.2 μM; for inhibition at 1 µM: concentration 1.0 μM; for inhibition at 2 µM: concentration 2.0 μM; for inhibition at 0.1 µM: concentration 0.1 μM; for inhibition at 10 µM: concentration 10.0 μM; for inhibition at 0.5 µM: concentration 0.5 μM
Protocol: The test for inhibition of calcium dependent smooth muscle contraction is determined according to the following procedure:
Trachea from dogs sacrificed by excess KCl injection are stored overnight at 4° C. in oxygenated Krebs-Henseleit buffer. Tracheal rings, one cartilage segment wide (5-10 mm), are cut starting from the bronchial end. After cutting the cartilage, the trachealis muscle tissue is suspended in oxygenated Krebs-Henseleit buffer at 37° C. in a 25 ml tissue bath. After a 60 minutes equilibration period, the tissues are challenged with 10 μM carbachol. After 5 minutes the tissues are rinsed and allowed to rest 50 minutes. The tissues are then challenged with 50 mM KCl and, after 30 minutes, the contractions are quantitated. The tissues are then rinsed and reequilibrated for 50 minutes. Test compounds are then added for 10 minutes, and the tissue is rechallenged with 50 mMKcl. After 30 minutes, the contraction is recorded and used to determine the % inhibition of control.
The percent inhibition of smooth muscle contraction is calculated from response data before and after drug treatment. [formula] A rating is assigned to the compound depending upon the percent inhibition obtained.

calcium channels = target: T1, calcium channels (Oryctolagus cuniculus, UniProt P15381); test: Inhibition of nitrendipine binding (3H-nitrendipine displacement, rabbit heart membranes); design: species or system rabbit (New Zealand white); details: 90 min, 4° C.
T1 construct: from tissue; host or cells: heart of female New Zealand white rabbits, membrane fraction (42,000×g pellet)
T1 sequence (P15381 whole entry, other chains not shown): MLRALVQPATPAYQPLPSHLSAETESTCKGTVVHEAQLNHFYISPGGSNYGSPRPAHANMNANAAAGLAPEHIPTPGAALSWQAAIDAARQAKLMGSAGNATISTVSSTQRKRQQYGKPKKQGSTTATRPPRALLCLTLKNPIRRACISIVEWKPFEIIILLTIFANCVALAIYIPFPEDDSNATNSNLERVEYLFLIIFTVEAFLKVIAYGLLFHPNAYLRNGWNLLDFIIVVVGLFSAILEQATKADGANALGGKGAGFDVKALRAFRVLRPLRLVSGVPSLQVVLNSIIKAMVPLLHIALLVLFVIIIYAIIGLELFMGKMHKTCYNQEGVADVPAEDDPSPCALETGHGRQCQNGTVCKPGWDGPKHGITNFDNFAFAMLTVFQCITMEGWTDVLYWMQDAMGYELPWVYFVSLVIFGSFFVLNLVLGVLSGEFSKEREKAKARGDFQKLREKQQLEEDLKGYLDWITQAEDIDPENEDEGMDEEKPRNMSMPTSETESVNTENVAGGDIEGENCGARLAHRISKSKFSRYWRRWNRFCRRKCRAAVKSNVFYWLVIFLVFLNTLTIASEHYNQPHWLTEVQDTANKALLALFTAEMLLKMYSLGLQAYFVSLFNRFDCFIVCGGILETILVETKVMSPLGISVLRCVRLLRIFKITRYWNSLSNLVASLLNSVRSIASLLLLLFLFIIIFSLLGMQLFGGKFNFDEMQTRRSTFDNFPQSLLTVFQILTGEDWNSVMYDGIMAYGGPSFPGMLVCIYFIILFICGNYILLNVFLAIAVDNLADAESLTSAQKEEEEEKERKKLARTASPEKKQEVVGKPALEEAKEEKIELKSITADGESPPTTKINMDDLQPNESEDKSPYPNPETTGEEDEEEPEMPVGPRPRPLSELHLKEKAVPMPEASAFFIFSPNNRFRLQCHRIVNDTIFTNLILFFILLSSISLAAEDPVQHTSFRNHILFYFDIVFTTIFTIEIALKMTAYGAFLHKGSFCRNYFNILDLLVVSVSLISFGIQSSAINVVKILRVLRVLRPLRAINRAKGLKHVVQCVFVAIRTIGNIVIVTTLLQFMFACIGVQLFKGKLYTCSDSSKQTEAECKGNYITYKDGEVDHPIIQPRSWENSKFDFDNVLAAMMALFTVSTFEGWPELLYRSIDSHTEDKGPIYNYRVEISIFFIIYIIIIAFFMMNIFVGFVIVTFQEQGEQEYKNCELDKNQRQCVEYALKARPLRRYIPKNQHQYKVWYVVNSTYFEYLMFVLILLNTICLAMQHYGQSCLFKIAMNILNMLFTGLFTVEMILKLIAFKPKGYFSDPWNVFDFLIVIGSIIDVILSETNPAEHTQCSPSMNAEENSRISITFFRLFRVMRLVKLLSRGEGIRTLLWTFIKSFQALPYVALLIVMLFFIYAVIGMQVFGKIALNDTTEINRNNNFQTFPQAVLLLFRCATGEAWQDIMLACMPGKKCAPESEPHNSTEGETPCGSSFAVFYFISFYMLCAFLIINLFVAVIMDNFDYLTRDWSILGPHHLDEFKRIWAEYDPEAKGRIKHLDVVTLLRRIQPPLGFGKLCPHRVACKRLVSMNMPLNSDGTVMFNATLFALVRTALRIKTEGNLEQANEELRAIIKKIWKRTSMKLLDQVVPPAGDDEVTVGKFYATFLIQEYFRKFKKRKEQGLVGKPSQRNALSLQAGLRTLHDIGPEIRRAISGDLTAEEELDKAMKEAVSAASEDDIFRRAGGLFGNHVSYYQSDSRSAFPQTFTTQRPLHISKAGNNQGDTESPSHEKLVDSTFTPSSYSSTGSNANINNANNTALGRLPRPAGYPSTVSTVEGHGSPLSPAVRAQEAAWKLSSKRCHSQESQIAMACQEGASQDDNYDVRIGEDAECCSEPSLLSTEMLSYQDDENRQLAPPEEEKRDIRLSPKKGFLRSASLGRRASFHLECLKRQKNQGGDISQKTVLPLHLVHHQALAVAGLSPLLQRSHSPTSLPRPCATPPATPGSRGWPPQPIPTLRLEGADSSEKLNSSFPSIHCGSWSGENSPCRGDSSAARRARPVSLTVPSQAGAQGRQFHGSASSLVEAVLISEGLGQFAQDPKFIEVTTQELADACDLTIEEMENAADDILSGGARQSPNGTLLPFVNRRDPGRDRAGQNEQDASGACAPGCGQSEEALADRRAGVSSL
T1 sequence (P13806 27-960 partner limits assumed, other chains not shown): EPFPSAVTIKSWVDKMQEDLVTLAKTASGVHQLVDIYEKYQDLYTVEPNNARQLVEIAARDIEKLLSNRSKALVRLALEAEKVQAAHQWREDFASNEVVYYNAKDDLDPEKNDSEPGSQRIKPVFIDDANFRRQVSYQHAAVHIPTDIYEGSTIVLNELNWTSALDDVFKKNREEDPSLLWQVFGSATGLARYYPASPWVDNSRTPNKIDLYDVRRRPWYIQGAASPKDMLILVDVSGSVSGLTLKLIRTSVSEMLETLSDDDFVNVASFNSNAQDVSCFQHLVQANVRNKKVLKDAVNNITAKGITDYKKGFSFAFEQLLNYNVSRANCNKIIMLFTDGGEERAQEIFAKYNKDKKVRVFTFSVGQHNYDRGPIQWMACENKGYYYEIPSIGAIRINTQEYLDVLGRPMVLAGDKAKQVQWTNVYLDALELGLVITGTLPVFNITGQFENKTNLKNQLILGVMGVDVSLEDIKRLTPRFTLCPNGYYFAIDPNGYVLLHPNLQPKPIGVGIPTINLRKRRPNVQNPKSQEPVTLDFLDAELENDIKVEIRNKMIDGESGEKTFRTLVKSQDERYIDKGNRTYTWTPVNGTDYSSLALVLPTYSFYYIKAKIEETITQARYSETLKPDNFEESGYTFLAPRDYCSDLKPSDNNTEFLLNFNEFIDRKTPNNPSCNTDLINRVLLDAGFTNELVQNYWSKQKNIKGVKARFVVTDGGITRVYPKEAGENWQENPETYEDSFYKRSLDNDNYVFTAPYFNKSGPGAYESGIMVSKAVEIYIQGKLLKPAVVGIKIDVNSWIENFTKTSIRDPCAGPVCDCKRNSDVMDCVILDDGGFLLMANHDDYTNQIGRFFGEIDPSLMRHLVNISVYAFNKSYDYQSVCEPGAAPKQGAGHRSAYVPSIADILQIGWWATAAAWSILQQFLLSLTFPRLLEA
T1 sequence (P13806 961-1106 partner limits assumed, other chains not shown): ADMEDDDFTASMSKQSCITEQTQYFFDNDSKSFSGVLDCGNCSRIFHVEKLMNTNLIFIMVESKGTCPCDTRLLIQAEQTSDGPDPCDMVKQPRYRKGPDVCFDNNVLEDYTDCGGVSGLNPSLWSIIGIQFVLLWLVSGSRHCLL
Protocol: (1) Inhibition of nitrendipine binding to calcium channels.
The assay for inhibition of nitrendipine binding follows the following procedure:
Female, New Zealand white rabbits (1-2 kg) are sacrificed by cervical dislocation, and the heart is immediately removed, cleaned, and chopped into small pieces. The tissue is homogenized in 5× volume of 0.05M Hepes buffer, pH 7.4. The homogenate is centrifuged at 4000×g for 10 minutes; the supernatant is recentrifuged at 42,000×g for 90 minutes. The resulting membrane pellet is resuspended (0.7 ml/g weight) in 0.05M Hepes, pH 7.4 and stored at -70° C. until used. Each tube of the binding assay contains ^3 H- nitrendipine (0.05-0.50 nM), buffer, membranes (0.10 ml), and test compound in a total volume of 1.0 ml. After 90 minutes at 4° C., the bound nitrendipine is separated from the unbound by filtration on Whatman GF/C fibers. After rinsing, the filters are dried and counted in a liquid scintillation counter.
Non-specific binding of ^3 H-nitrendipine (that amount bound in the presence of excess unlabelled nitrendipine) is subtracted from the total bound to obtain specifically bound radiolabeled nitrendipine. The amount of specifically bound nitrendipine in the presence of a test compound is compared to that amount bound in the absence of a compound. A percent displacement (or inhibition) can then be obtained.

Aorta Muscle = test: Inhibition of aorta muscle contraction; format: cell-based; details: Table II; concentration 0.1 μM
[1] = Table II, read-out: Inhibition Trachea Muscle Contraction % Inhibition
[2] = Table I, read-out: Inhibition of Ca2+ dependent smooth muscle contraction % Inhibition

CC1=C(C(=O)OCCN2CCc3ccccc3C2)C(c2cccc([N+](=O)[O-])c2)C2=C(CCCCS2(=O)=O)N1 (stereo not shown) [4 3-NO2C6 H4 drawing 11]
inhibition at 0.2 µM (trachealis muscle; [1]): 45% | IC50 (calcium channels; Table II): 200 nM | inhibition at 0.1 µM (Aorta Muscle): 53%

CC1=C(C(=O)OCCNc2ccccc2)C(c2cccc([N+](=O)[O-])c2)C2=C(CCCCS2(=O)=O)N1 (stereo not shown) [4 3-NO2C6 H4 CH2 CH2 NHC6 H5]
inhibition at 1 µM (trachealis muscle; Table II): 72% | IC50 (calcium channels; Table II): 16 nM | inhibition at 0.1 µM (Aorta Muscle): 48%

CC1=C(C(=O)OCCN(C)c2ccccc2)C(c2cccc([N+](=O)[O-])c2)C2=C(CCCCS2(=O)=O)N1 (stereo not shown) [4 3-NO2C6 H4 CH2 CH2 NCH3 C6 H5]
inhibition at 1 µM (trachealis muscle; Table II): 65% | IC50 (calcium channels; Table II): 45 nM | inhibition at 0.1 µM (Aorta Muscle): 53%

CC1=C(C(=O)OC2CCCSC2)C(c2c(F)c(F)c(F)c(F)c2F)C2=C(CCCCS2(=O)=O)N1 (stereo not shown) [4 C6 F5 drawing 13]
inhibition at 2 µM (trachealis muscle; [1]): 53%

CC1=C(C(=O)OCCN(C)Cc2ccccc2)C(c2ccccc2OC(F)F)C2=C(CCCCS2(=O)=O)N1 (stereo not shown) [4 2-OCHF2C6 H4, N-Benzyl-N-methylaminoethyl 9-(2-cifluoromethoxyphenyl)-2,4,5,6,9-hexahydro-7-methyl-1,1-dioxothiacyclohepteno[3,2-b]pyridine-8-carboxylate]
inhibition at 0.1 µM (trachealis muscle; [1]): 54% | IC50 (calcium channels; Table II): 72 nM

COC(=O)C1=C(C)NC2=C(C1c1cccc(Cl)c1)S(=O)(=O)CC2 (stereo not shown) [2 CH3 3-ClC6 H4]
IC50 (calcium channels; Table I): 930 nM

COC(=O)C1=C(C)NC2=C(C1c1cccc([N+](=O)[O-])c1)S(=O)(=O)CCCC2 (stereo not shown) [4 CH3 3-NO2C6 H4]
inhibition at 2 µM (trachealis muscle; [2]): 94% | IC50 (calcium channels; Table I): 27 nM and 39 nM

CCOC(=O)C1=C(C)NC2=CCCCCS(=O)(=O)C2C1c1cccc([N+](=O)[O-])c1 (stereo not shown) [Ethyl 3,4,5,7,10,10a-hexahydro-8-methyl-10-(3-nitrophenyl)-1,1-dioxo-2H-thiacycloocteno[3,2-b]pyridine-9-carboxylate]
inhibition at 2 µM (trachealis muscle; [2]): 53% | IC50 (calcium channels; Table I): 270 nM

COC(=O)C1=C(C)NC2=C(C1c1c(F)c(F)c(F)c(F)c1F)S(=O)(=O)CC2 (stereo not shown) [2 CH3 C6 F5]
inhibition at 2 µM (trachealis muscle; [2]): 47% | IC50 (calcium channels; Table I): 150 nM

COC(=O)C1=C(C)NC2(O)CCS(=O)(=O)C2C1c1ccccc1[N+](=O)[O-] (stereo not shown) [Methyl 2,3,3a,4,7,7a-hexahydro-3a-hydroxy-5-methyl-7-(2-nitrophenyl)-1,1-dioxo-thieno[3,2-b]pyridine-6-carboxylate]
inhibition at 2 µM (trachealis muscle; [2]): 26%

COC(=O)C1=C(C)NC2=C(C1c1ccccc1[N+](=O)[O-])S(=O)(=O)CCC2 (stereo not shown) [3 CH3 2-NO2C6 H4]
inhibition at 10 µM (trachealis muscle; [2]): 84% | IC50 (calcium channels; Table I): 890 nM

CCOC(=O)C1=C(C)NC2=C(C1c1c(F)c(F)c(F)c(F)c1F)S(=O)(=O)CCCC2 (stereo not shown) [4 CH2 CH3 C6 F5, Ethyl 9-(2,3,4,5,6-pentafluorophenyl)-2,3,4,5,6,9-hexahydro-7-methyl-1,1-dioxothiacyclohepteno[3,2-b]pyridine-8-carboxylate]
inhibition at 0.5 µM (trachealis muscle; [2]): 95% | IC50 (calcium channels; Table I): 28 nM

COC(=O)C1=C(C)NC2=C(C1c1ccccc1[N+](=O)[O-])S(=O)(=O)CC2 (stereo not shown) [2 CH3 2-NO2C6 H4, Methyl 2,3,4,7,-tetrahydro-5-methyl-7-(2-nitrophenyl)-1,1-dioxothieno[3,2-b]pyridine-6-carboxylate]
inhibition at 2 µM (trachealis muscle; [2]): 63% | IC50 (calcium channels; Table I): 1350 nM

CC1=C(C(=O)OCCN(C)Cc2ccccc2)C(c2cccc([N+](=O)[O-])c2)C2=C(CCCS2(=O)=O)N1 (stereo not shown) [3 CH2 CH2 NCH3 CH2 C6 H5 3-NO2C6 H4, N-Benzyl-N-methyl-2-aminoethyl 2,3,4,8-tetrahydro-6-methyl-8-(3-nitrophenyl)-1,1-dioxo-5H-thiopyrano[3,2-b]pyridine-7-carboxylate Hemioxalate]
inhibition at 2 µM (trachealis muscle; [2]): 46% | IC50 (calcium channels; Table I): 1850 nM

CCOC(=O)C1=C(C)NC2=C(C1c1cccc([N+](=O)[O-])c1)S(=O)(=O)CCC2 (stereo not shown) [3 CH2 CH3 3-NO2C6 H4, Ethyl 3,4,5,8-tetrahydro-6-methyl-8-(3-nitrophenyl)-1,1-dioxo-2H-thio-pyrano[3,2-b]pyridine-7-carboxylate]
inhibition at 10 µM (trachealis muscle; [2]): 69% | IC50 (calcium channels; Table I): 170 nM

CC1=C(C(=O)OCCN(C)Cc2ccccc2)C(c2cccc([N+](=O)[O-])c2)C2=C(CCS2(=O)=O)N1 (stereo not shown) [2 CH2 CH2 NCH3 CH2 C6 H5 3-NO2C6 H4, N-Benzyl-N-methylaminoethyl 2,3,4,7-tetrahydro-5-methyl-7-(3-nitrophenyl)-1,1-dioxothieno[3,2-b]pyridine-6-carboxylate]
inhibition at 5 µM (trachealis muscle; Table I, concentration 5.0 μM, read-out: Inhibition of Ca2+ dependent smooth muscle contraction % Inhibition): 65% | IC50 (calcium channels; Table I): 1000 nM

CC1=C(C(=O)OCCN(C)Cc2ccccc2)C(c2ccccc2[N+](=O)[O-])C2=C(CCCCCS2(=O)=O)N1 (stereo not shown) [5 2-NO2C 6 H4 CH2 CH2 NCH3 CH2 C6 H5]
inhibition at 0.1 µM (trachealis muscle; [1]): 69% | inhibition at 0.1 µM (Aorta Muscle): 73%

CC1=C(C(=O)OCCN(C)Cc2ccccc2)C(c2c(F)c(F)c(F)c(F)c2F)C2=C(CCCCS2(=O)=O)N1 (stereo not shown) [4 CH2 CH2 NCH3 CH2 C6 H5 C6 F5, N-Benzyl-N-methylaminoethyl 9-(2,3,4,5,6-pentafluorophenyl)-2,3,4,5,6,9-hexahydro-7-methyl-1,1-dioxothiacyclohepteno[3,2-b]pyridine-8-carboxylate]
inhibition at 0.2 µM (trachealis muscle; [2]): 74% | IC50 (calcium channels; Table I): 35 nM

COC(=O)C1=C(C)NC2=C(C1c1cccc([N+](=O)[O-])c1)S(=O)(=O)CC2 (stereo not shown) [2 CH3 3-NO2C6 H4]
inhibition at 10 µM (trachealis muscle; [2]): 76% | IC50 (calcium channels; Table I): 700 nM

CCOC(=O)C1=C(C)NC2=C(C1c1cccc([N+](=O)[O-])c1)S(=O)(=O)CCCC2 (stereo not shown) [4 CH 2 CH3 3-NO2C6 H4, Ethyl 2,3,4,5,6,9-hexahydro-7-methyl-9-(3-nitrophenyl)-1,1-dioxothiacyclohepteno[3,2-b]pyridine-8-carboxylate]
inhibition at 2 µM (trachealis muscle; [2]): 96% | IC50 (calcium channels; Table I): 44 nM

COC(=O)C1=C(C)NC2=C(C1c1cccc(C#N)c1)S(=O)(=O)CC2 (stereo not shown) [2 CH3 3-CNC6 H4]
IC50 (calcium channels; Table I): 2000 nM

CCOC(=O)C1=C(C)NC2=C(C1c1ccccc1[N+](=O)[O-])S(=O)(=O)CCC2 (stereo not shown) [3 CH2 CH3 2-NO2C6 H4]
inhibition at 10 µM (trachealis muscle; [2]): 75% | IC50 (calcium channels; Table I): 1500 nM

COC(=O)C1=C(C)NC2=C(C1c1c(F)c(F)c(F)c(F)c1F)S(=O)(=O)CCC2 (stereo not shown) [3 CH3 C6 F5]
inhibition at 0.5 µM (trachealis muscle; [2]): 46% | IC50 (calcium channels; Table I): 400 nM

CC1=C(C(=O)OCCN(C)Cc2ccccc2)C(c2cccc([N+](=O)[O-])c2)C2=C(CCCCS2(=O)=O)N1 (stereo not shown) [4 CH2 CH2 NCH3 CH2 C6 H5 3-NO2C6 H4, N-Benzyl-N-methylaminoethyl 2,4,5,6,9-hexahydro-7-methyl-9-(3-nitrophenyl)-1,1-dioxothiacyclohepteno[3,2-b]pyridine-8-carboxylate]
inhibition at 0.2 µM (trachealis muscle; [2]): 68% | IC50 (calcium channels; Table I): 130 nM

CCOC(=O)C1=C(C)NC2=C(C1c1cccnc1SC)S(=O)(=O)CCCCC2 (stereo not shown) [drawing 8 CH2 CH3]
inhibition at 0.3 µM (trachealis muscle; Table II, concentration 0.3 μM): 79% | inhibition at 0.1 µM (Aorta Muscle): 42%

CC1=C(C(=O)OC2CCCSC2)C(c2cccc(Cl)c2Cl)C2=C(CCCCS2(=O)=O)N1 (stereo not shown) [4 2,3-Cl2C6 H3 drawing 14]
inhibition at 2 µM (trachealis muscle; [1]): 54%

CCOC(=O)C1=C(C)NC2=C(C1c1c(F)c(F)c(F)c(F)c1F)S(=O)(=O)CC2 (stereo not shown) [2 CH2 CH3 C6 F5]
inhibition at 2 µM (trachealis muscle; [2]): 48% | IC50 (calcium channels; Table I): 560 nM

CC1=C(C(=O)OCc2ccccc2)C(c2ccccc2[N+](=O)[O-])C2=C(CCCS2(=O)=O)N1 (stereo not shown) [3 CH2 C6 H5 2-NO2C6 H4]
inhibition at 10 µM (trachealis muscle; [2]): 69% | IC50 (calcium channels; Table I): 3400 nM

COC(=O)C1=C(C)NC2=C(C1c1cccc([N+](=O)[O-])c1)S(=O)(=O)CCC2 (stereo not shown) [3 CH3 3-NO2C6 H4, Methyl 3,4,5,8,-tetrahydro-6-methyl-8-(3-nitrophenyl)-1,1-dioxo-2H-thiopyrano-[3,2-b]pyridine-7-carboxylate]
inhibition at 10 µM (trachealis muscle; [2]): 57% | IC50 (calcium channels; Table I): 160 nM

CCOC(=O)C1=C(C)NC2=C(C1c1cccc([N+](=O)[O-])c1)S(=O)(=O)CCCCC2 (stereo not shown) [5 CH2 CH3 3-NO2C6 H4]
inhibition at 0.1 µM (trachealis muscle; [2]): 71% | IC50 (calcium channels; Table I): 5.5 nM
